Test results taken from ChEMBL document CHEMBL1201862, “PubChem BioAssay data set” (2004).
Active and inactive are the calls of the source.

Assays:
H4 = assay: Luminescence Cell-Based Dose Response HTS to Identify Activators of 5'UTR Stem-Loop Driven Prion Protein mRNA Translation in H4 Neuroglioblastoma Cells. [Related pubchem assays: 1829 (Project Summary), 1814 (Primary HTS)]; type: functional; details: Homo sapiens
[1] = biological target: Glutathione-S-transferase (Schistosoma japonicum, UniProt Q26513); assay: biotin-GST/anti-GST TR-FRET signal inhibitors, dose response, artefact control for Vif-APOBEC3G degradation inhibitor project, biochemical (AID 1117362); type: functional
Chain of Glutathione-S-transferase (Q26513 whole entry): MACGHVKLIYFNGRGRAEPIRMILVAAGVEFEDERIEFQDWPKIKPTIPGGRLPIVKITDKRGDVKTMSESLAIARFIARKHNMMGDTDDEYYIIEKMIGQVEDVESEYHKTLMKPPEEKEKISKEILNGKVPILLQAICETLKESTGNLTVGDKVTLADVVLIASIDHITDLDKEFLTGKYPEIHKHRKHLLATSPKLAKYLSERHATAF

Caspase-3 = biological target: T1, Caspase-3 (Homo sapiens, UniProt P42574); assay: SAR Analysis of small molecule inhibitors of Sentrin-specific proteases (SENPs) using a Caspase-3 Selectivity assay. [Related pubchem assays (depositor defined):AID2540, AID2599, AID434973, AID489001]; type: functional
T1 sequence (P42574 whole entry): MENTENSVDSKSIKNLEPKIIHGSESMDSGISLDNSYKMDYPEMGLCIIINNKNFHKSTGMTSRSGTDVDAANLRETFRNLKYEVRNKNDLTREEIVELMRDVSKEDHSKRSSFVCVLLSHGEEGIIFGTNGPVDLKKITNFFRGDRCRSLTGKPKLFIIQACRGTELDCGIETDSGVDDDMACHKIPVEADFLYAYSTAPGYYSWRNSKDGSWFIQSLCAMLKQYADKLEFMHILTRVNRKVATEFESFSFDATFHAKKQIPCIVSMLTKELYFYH

HEK293 [2] = assay: NOD2 signaling inhibitors in MDP-stimulated cells, cell-based, uHTS, luminescence (AID 2001); type: functional; details: Homo sapiens
HEK293 [3] = assay: cells; type: functional, cell-based; details: Homo sapiens
[4] = biological target: Macrophage colony-stimulating factor 1 receptor (Homo sapiens, UniProt P07333); type: functional;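 note: value comes from the Navigating the Kinome screening panel, CSF1R member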
[5] = biological target: PAS domain-containing serine/threonine-protein kinase (Homo sapiens, UniProt Q96RG2); type: functional
[6] = biological target: Tyrosine-protein kinase JAK3 (Homo sapiens, UniProt P52333); type: functional
[7] = biological target: Serine/threonine-protein kinase DCLK1 (Homo sapiens, UniProt O15075); type: functional;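 note: affinity for DCLK1 (listed as DCAMKL1) measured as one member of a kinome-wide kinase profiling panel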
Chain of Serine/threonine-protein kinase DCLK1 (O15075 whole entry): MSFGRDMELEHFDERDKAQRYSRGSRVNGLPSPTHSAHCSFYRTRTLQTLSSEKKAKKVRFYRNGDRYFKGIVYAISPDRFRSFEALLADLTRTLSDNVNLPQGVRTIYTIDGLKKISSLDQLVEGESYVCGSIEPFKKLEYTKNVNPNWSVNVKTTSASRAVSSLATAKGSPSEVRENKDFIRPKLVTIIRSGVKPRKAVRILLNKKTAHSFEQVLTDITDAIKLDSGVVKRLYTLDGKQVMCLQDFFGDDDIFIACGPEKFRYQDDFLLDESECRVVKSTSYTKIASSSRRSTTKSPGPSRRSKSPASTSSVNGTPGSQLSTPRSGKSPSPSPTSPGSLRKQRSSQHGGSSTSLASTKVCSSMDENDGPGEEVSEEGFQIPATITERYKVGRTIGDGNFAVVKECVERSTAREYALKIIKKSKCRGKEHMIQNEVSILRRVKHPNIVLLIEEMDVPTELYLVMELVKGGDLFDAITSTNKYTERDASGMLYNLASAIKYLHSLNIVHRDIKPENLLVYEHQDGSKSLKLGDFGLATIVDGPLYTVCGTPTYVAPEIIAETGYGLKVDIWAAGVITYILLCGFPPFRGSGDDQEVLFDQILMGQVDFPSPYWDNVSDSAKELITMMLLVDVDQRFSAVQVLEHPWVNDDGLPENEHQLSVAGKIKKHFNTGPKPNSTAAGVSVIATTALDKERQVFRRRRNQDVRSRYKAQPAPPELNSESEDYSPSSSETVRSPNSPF

[8] = biological target: 3-phosphoinositide-dependent protein kinase 1 (Homo sapiens, UniProt O15530); type: functional;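 note: value comes from the Navigating the Kinome panel, PDPK1 member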
Chain of 3-phosphoinositide-dependent protein kinase 1 (O15530 whole entry): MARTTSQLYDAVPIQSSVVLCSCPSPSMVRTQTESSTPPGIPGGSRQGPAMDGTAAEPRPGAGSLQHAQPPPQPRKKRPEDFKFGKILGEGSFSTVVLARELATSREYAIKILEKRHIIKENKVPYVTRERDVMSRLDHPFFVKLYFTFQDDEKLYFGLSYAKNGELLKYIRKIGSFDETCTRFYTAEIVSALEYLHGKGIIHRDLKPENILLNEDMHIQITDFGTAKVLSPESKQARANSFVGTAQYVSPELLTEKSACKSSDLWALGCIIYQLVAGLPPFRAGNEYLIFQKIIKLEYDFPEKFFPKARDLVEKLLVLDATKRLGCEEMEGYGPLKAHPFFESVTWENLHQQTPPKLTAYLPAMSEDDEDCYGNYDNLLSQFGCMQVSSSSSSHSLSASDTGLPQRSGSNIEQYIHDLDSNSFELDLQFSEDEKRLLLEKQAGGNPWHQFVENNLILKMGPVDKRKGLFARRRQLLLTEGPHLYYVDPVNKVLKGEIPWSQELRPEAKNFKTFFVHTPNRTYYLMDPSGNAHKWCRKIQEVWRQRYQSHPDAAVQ

[9] = biological target: High affinity nerve growth factor receptor (Homo sapiens, UniProt P04629); type: functional;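 note: NTRK1 tested as one member of a kinome-wide profiling panel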
[10] = biological target: Serine/threonine-protein kinase Chk2 (Homo sapiens, UniProt O96017); type: functional;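 note: CHEK2 entry within a kinome-wide screening panel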
[11] = biological target: Homeodomain-interacting protein kinase 4 (Homo sapiens, UniProt Q8NE63); type: functional
Chain of Homeodomain-interacting protein kinase 4 (Q8NE63 whole entry): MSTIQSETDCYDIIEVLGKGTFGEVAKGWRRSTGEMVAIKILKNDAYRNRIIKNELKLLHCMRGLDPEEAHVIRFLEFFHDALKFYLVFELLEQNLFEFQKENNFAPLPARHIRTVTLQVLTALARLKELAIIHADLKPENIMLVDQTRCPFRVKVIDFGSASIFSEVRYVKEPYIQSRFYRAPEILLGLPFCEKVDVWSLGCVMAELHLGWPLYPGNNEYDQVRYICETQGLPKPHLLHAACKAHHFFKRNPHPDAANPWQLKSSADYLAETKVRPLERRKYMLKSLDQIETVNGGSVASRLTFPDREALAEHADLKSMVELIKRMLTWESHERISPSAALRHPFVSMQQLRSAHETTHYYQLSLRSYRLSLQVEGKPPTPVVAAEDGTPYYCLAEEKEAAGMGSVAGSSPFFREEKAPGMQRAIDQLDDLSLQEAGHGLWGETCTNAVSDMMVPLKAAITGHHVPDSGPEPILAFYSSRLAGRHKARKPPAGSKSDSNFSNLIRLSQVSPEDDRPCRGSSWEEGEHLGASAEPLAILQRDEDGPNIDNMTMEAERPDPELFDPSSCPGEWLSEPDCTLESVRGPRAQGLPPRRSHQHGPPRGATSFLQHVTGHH

[12] = biological target: ALK tyrosine kinase receptor (Homo sapiens, UniProt Q9UM73); type: functional;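 note: ALK tested as one member of a kinase panel screen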
Aurora kinase A = Aurora kinase A (Homo sapiens, UniProt O14965); type: functional;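 note: value from the Navigating the Kinome kinase panel profiling, panel entry STK6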
Chain of Aurora kinase A (O14965 whole entry): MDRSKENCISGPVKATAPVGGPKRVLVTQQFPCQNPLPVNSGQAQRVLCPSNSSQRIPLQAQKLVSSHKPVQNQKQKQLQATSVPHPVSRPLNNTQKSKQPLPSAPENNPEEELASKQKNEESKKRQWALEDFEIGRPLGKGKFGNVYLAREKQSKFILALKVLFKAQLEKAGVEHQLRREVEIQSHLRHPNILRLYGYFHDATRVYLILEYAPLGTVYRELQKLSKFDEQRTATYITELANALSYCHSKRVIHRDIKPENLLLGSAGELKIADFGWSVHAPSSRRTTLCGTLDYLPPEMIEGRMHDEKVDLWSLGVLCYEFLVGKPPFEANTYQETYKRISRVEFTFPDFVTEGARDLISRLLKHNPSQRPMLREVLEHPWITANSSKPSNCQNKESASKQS

[13] = biological target: MAP/microtubule affinity-regulating kinase 3 (Homo sapiens, UniProt P27448); type: functional;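 note: MARK3 affinity measured as one member of a kinome panel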
[14] = biological target: Cyclin-dependent kinase 1 (Homo sapiens, UniProt P06493); type: functional;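 note: Kinome-wide panel profiling, with the target listed as panel member CDC2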
[15] = biological target: Cell division cycle 7-related protein kinase (Homo sapiens, UniProt O00311); type: functional;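 note: value obtained from a kinome-wide kinase panel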
[16] = biological target: Glycogen synthase kinase-3 beta (Homo sapiens, UniProt P49841); type: functional;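 note: value comes from a broad kinome profiling panel, with GSK3B as the panel member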
[17] = biological target: Protein-tyrosine kinase 6 (Homo sapiens, UniProt Q13882); type: functional
[18] = biological target: RAC-alpha serine/threonine-protein kinase (Homo sapiens, UniProt P31749); type: functional;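 note: AKT1 affinity measured as one member of a kinome-wide kinase profiling panel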
Chain of RAC-alpha serine/threonine-protein kinase (P31749 whole entry, canonical isoform): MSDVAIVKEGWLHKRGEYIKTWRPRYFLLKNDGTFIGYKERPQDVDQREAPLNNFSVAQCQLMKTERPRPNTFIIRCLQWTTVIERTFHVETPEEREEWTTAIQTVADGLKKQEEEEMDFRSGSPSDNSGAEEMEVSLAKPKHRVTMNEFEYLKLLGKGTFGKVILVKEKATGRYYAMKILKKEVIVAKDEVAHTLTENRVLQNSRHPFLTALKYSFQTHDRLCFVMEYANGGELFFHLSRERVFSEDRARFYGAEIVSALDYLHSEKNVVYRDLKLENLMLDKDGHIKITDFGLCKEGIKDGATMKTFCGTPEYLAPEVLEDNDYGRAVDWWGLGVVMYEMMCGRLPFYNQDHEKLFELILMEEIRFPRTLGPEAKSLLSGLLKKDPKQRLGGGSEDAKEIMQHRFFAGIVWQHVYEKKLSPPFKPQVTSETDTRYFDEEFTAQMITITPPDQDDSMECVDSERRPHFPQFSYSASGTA

[19] = biological target: Phosphorylase b kinase gamma catalytic chain, liver/testis isoform (Homo sapiens, UniProt P15735); type: functional;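 note: PHKG2 measured as one member of a kinome-wide kinase panel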
Chain of Phosphorylase b kinase gamma catalytic chain, liver/testis isoform (P15735 whole entry, canonical isoform): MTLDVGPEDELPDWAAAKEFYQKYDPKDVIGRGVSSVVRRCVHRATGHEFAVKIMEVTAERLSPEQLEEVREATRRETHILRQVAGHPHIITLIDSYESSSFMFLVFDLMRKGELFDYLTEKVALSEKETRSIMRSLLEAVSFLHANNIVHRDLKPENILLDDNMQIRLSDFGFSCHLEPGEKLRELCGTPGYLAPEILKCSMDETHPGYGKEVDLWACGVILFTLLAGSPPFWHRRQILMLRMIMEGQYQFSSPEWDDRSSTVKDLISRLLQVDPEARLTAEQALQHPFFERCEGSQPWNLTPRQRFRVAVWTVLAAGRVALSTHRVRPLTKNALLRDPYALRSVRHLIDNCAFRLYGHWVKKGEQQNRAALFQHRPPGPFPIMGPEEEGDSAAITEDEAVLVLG

[20] = biological target: Serine/threonine-protein kinase pim-3 (Homo sapiens, UniProt Q86V86); type: functional;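 note: value obtained as one member of a broad kinase panel profiling effort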
[21] = biological target: STE20-like serine/threonine-protein kinase (Homo sapiens, UniProt Q9H2G2); type: functional
Chain of STE20-like serine/threonine-protein kinase (Q9H2G2 whole entry): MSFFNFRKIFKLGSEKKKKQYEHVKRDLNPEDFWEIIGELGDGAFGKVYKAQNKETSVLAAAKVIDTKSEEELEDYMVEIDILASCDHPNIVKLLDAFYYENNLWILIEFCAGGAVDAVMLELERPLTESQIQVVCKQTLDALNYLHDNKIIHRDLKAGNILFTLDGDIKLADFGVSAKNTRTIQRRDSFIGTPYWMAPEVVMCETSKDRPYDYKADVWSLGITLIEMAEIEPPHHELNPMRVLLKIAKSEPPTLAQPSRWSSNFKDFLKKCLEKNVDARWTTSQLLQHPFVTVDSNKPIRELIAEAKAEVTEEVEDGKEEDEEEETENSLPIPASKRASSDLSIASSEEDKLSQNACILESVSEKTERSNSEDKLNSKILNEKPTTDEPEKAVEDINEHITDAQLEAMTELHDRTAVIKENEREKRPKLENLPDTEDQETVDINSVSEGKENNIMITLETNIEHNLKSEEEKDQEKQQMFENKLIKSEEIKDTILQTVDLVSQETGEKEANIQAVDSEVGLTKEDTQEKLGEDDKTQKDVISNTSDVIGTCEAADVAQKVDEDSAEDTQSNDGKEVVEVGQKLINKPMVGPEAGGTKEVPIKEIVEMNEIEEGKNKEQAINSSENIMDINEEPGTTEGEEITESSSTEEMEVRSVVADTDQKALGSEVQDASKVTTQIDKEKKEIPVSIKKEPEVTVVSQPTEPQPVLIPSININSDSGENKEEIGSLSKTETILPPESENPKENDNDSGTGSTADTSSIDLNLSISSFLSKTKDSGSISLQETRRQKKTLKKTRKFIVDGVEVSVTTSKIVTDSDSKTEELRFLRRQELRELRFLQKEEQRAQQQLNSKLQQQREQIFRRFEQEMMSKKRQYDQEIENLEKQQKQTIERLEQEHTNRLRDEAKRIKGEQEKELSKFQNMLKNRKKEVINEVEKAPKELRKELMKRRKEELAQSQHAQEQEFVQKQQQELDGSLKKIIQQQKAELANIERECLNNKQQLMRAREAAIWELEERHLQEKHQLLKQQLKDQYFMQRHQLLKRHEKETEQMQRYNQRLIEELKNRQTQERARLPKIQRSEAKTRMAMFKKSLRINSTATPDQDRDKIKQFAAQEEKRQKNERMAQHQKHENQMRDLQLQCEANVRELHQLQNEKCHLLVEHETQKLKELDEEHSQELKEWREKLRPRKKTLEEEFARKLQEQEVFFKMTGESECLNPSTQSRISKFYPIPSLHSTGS

Mu-type opioid receptor = Mu-type opioid receptor (Homo sapiens, UniProt P35372); assay: HTS Image-Based Screen for Agonists of the MOR Receptor. [Related pubchem assays (depositor defined):AID1777, AID1785, AID1786, AID2133]; type: functional;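 note: imaging of beta-arrestin GFP recruitment into spots after receptor activation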
BJ = assay: cytotoxicity toward BJ-TERT-LT-ST fibroblasts, dose response, cell-based, RAS-independent, luminescence (AID 1935); type: functional; details: Homo sapiens;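 note: BJ fibroblasts immortalized with TERT plus LT and ST oncogenes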
[22] = Luminescence-based dose response cell-based high throughput screening assay for cytotoxic compounds using the IEC-6 intestinal epithelial cell line. [Related pubchem assays: 1858 (Summary AID.), 1825 (Counterscreen.), 1907 (Confirmation screen.)]; type: functional

CN(C)c1ncc(C2=C(Cl)C(=O)C(N3CCCC3)=C(Cl)C2=O)s1
active: EC50 (H4) 34100 nM | IC50 [1] > 100000 nM

Cc1cnc(NC(=O)c2sc3ccccc3c2Cl)s1
active: IC50 (Caspase-3) 3140 nM

O=C1C(O)=C/C(=N\c2ccccc2O)c2ccccc21
inactive: IC50 (HEK293 [2]) > 20000 nM | IC50 (HEK293 [3]) > 20000 nM

O=C1NC(=S)SC1=C1C(=O)Nc2ccc(Br)cc21
inactive: Ki [4] > 2510 nM | Ki [5] > 1580 nM | Ki [6] > 1580 nM | Ki [7] > 10000 nM | Ki [8] > 3980 nM | Ki [9] > 2510 nM | Ki [12] > 1260 nM | Ki [14] > 7940 nM | Ki [15] > 1260 nM | Ki [17] > 2510 nM | Ki [18] > 7940 nM | Ki [19] > 5010 nM
active: Ki [10] 1260 nM | Ki [11] 631 nM | Ki (Aurora kinase A) 501 nM | Ki [13] 2510 nM | Ki [16] 501 nM | Ki [20] 50.1 nM | Ki [21] 1260 nM

Cc1ccc(Nc2cc(C)nn2-c2nc(C)cc(O)n2)cc1
active: IC50 [22] 546 nM
inactive: EC50 (Mu-type opioid receptor) > 32000 nM
inconclusive: EC50 (BJ) 2940 nM
